The record followed here is ChEMBL document CHEMBL3868610, “Novel bicyclo[3.1.0]hexane analogs as antagonists of metabotropic glutamate 2/3 receptors for the treatment of depression” (Bioorg Med Chem Lett, 2016).

Converted amounts (≈) assume the structure as drawn. The source made the active and inactive calls. No cut-off for these calls is given here.

What is called half-life is how long it takes for the measured level to halve. The fraction unbound is free concentration divided by total concentration. In general, EC50 refers to the concentration giving half of the maximal effect. One may read the Ki as a measure of affinity in units of concentration, obtained from inhibition or displacement. The term inhibition denotes how much of the control response was suppressed. One may read the Tmax as the time at which the peak concentration occurs. A word on the solubility: it is how much of the substance goes into solution per volume. The AUC is concentration integrated over time. The term IC50 denotes the concentration that gives 50% inhibition. As usually defined, the AUC(0-t) is the area under the concentration-time curve up to a stated or last time point.

A short description of data set [1]: Plasma concentration in NIH Swiss Webster mouse at 3 mg/kg, ip at 30 mins. It is filed as ADME, organism-based.
Data set [2] is described as follows: Half life in rat at 5 mg/kg, po. The class given is ADME, organism-based. To be noted: in vivo.
The nature of data set [3]: Unbound fraction in human plasma at 1 uM. The class given is ADME, cell-free.
Data set [4] addresses Metabotropic glutamate receptor 7 (Homo sapiens, UniProt Q14831). Description: Agonist activity at recombinant human mGlu7 receptor expressed in hamster AV12 cells co-expressing human EAAT1/Galpha1s assessed as increase in Ca2+ flux by Fluo-3-AM dye based FLIPR assay. It is filed as functional, cell-based. For orientation: Calcium flux is commonly read through the fluorescence of an indicator in the cells.

Data set [5] can be described thus: Drug uptake in NIH Swiss Webster mouse brain at 3 mg/kg, ip at 30 mins. The class given is ADME, organism-based. To be noted: read-out: Drug uptake.
Data set [6] has as its target Voltage-gated inwardly rectifying potassium channel KCNH2 (Homo sapiens, UniProt Q12809). Kind of data set: Displacement of [3H]-Astemizole from human ERG by membrane binding assay.
Another data set addresses hERG (KCNH2) (Homo sapiens, UniProt Q12809). Description: Displacement of [3H]-Astemizole from human ERG at 100 uM by membrane binding assay. The conditions noted are these: membranes with human ERG, probe [3H]-Astemizole. (Loss of bound radioactivity is the signal in a displacement assay; it reports binding, not function.)
Data set [7] can be described thus: Drug metabolism in monkey microsomes at 4 uM after 30 mins. The class given is ADME, Macaca mulatta, Microsome. To be noted: rhesus monkey, read-out: Drug metabolism.
The next data set concerns the target CYP2C9 (Homo sapiens, UniProt P11712). Description: Inhibition of human CYP2C9 at 10 uM. The class given is ADME.
The target of data set [8] is Metabotropic glutamate receptor 6 (Homo sapiens, UniProt O15303). Description: Agonist activity at recombinant human mGlu6 receptor expressed in hamster AV12 cells co-expressing EAAT1 assessed as induction of forskolin-stimulated cAMP formation after 20 mins by HTRF assay. It is filed as functional, cell-based. In general terms: Cyclic AMP is a second messenger, typically raised through Gs and lowered through Gi signalling.

The nature of data set [9]: Tmax in rat at 5 mg/kg, po. To be noted: in vivo. The class given is ADME, organism-based.
The nature of data set [10]: Unbound fraction in monkey plasma at 1 uM. The class given is ADME, cell-free, Macaca mulatta. The conditions noted are these: rhesus monkey.
The nature of data set [11]: Oral bioavailability in rat at 5 mg/kg. The conditions noted are these: in vivo. It is filed as ADME, organism-based.
The target in data set [12] is T1, Metabotropic glutamate receptor 3 (Homo sapiens, UniProt Q14832). Description: Antagonist activity at recombinant human mGlu3 receptor expressed in hamster AV12 cells assessed as inhibition of DCG-4-inhibited forskolin-stimulated cAMP formation up to 25 uM after 20 mins by HTRF assay relative to control. It is filed as functional, cell-based.
Target sequence in this assay (Q14832 23-879 limits assumed): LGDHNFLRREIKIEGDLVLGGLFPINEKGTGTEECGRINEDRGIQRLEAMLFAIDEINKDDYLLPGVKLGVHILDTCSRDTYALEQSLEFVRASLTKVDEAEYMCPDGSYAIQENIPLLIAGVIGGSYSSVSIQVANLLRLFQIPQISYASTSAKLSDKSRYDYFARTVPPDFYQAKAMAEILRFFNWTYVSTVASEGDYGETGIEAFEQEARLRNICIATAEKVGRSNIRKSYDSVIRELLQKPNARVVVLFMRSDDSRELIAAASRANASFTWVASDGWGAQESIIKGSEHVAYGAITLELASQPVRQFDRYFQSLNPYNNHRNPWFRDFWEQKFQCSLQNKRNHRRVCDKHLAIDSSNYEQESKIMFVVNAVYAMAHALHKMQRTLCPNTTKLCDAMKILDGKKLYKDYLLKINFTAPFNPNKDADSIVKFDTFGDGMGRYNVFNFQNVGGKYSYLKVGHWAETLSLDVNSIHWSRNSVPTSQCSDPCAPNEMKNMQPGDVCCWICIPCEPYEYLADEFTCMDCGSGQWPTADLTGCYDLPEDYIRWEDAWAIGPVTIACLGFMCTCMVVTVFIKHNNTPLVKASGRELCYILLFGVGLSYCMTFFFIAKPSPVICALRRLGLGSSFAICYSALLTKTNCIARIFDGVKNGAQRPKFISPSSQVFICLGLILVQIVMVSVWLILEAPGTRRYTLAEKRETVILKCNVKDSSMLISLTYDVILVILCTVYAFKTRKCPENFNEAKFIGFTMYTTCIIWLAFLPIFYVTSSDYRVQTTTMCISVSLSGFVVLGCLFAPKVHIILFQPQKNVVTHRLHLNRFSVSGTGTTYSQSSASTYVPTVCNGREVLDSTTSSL
Data set [13] is described as follows: Aqueous solubility of compound at pH 7.4. It is filed as physicochemical. To be noted: aqueous medium.
A short description of data set [14]: Drug metabolism in dog microsomes at 4 uM after 30 mins. It is filed as ADME, Canis lupus familiaris, Microsome. To be noted: read-out: Drug metabolism.
The target of data set [15] is T1, Metabotropic glutamate receptor 3. Kind of data set: Agonist activity at recombinant human mGlu3 receptor expressed in hamster AV12 cells co-expressing human EAAT1 assessed as increase in forskolin-stimulated cAMP formation up to 25 uM after 20 mins by HTRF assay. The class given is functional, cell-based.
Target sequence in this assay (Q14832 whole entry): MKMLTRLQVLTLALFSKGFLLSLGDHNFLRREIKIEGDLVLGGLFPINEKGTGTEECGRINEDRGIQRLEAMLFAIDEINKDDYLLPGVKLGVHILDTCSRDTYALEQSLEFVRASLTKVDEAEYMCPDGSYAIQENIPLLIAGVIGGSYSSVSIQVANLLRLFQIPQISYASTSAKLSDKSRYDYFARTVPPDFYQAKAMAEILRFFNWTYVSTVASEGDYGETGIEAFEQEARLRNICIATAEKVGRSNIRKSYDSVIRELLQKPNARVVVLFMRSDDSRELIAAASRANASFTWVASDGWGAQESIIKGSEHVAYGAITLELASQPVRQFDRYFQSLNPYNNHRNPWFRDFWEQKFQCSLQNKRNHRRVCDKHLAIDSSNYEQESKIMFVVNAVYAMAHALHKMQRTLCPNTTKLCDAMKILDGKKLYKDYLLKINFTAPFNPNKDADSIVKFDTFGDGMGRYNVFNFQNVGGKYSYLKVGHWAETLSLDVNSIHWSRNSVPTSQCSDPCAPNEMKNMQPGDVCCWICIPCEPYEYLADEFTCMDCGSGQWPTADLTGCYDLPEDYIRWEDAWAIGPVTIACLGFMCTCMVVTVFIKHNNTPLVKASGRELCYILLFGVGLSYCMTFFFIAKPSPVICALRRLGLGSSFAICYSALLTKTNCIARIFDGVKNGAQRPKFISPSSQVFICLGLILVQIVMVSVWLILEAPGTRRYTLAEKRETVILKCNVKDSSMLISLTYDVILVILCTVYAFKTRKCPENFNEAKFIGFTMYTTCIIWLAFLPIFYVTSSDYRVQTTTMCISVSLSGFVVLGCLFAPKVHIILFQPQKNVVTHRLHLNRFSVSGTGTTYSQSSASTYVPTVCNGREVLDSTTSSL
A short description of data set [16]: AUC (0 to 24 hrs) in rat at 1 mg/kg, iv. The class given is ADME, organism-based. Also on record: dose 1 mg/kg, time < 24 hr, route intravenous. The conditions noted are these: in vivo.
The target in data set [17] is Metabotropic glutamate receptor 5 (Homo sapiens, UniProt P41594). Description: Antagonist activity at recombinant human mGlu5 receptor expressed in hamster AV12 cells coexpressing human EAAT1/Galpha1s assessed as inhibition of Ca2+ flux by Fluo-3-AM dye based FLIPR assay. The class given is functional, cell-based.
The target of a further data set is ABCB1 (P-gp) (Homo sapiens, UniProt P08183). Kind of data set: Inhibition of human ABCB1 expressed in MDCK cells at 5 to 25 uM relative to control. It is filed as ADME, cell-based. The conditions noted are these: MDCK-MDR1.
A short description of data set [18]: AUC (0 to 24 hrs) in rat at 10 mg/kg, ip. It is filed as ADME, organism-based. The arrangement: dose 10 mg/kg, time < 24 hr, route intraperitoneal. To be noted: in vivo.

Sequence of ABCB1 (P-gp) (P08183 whole entry): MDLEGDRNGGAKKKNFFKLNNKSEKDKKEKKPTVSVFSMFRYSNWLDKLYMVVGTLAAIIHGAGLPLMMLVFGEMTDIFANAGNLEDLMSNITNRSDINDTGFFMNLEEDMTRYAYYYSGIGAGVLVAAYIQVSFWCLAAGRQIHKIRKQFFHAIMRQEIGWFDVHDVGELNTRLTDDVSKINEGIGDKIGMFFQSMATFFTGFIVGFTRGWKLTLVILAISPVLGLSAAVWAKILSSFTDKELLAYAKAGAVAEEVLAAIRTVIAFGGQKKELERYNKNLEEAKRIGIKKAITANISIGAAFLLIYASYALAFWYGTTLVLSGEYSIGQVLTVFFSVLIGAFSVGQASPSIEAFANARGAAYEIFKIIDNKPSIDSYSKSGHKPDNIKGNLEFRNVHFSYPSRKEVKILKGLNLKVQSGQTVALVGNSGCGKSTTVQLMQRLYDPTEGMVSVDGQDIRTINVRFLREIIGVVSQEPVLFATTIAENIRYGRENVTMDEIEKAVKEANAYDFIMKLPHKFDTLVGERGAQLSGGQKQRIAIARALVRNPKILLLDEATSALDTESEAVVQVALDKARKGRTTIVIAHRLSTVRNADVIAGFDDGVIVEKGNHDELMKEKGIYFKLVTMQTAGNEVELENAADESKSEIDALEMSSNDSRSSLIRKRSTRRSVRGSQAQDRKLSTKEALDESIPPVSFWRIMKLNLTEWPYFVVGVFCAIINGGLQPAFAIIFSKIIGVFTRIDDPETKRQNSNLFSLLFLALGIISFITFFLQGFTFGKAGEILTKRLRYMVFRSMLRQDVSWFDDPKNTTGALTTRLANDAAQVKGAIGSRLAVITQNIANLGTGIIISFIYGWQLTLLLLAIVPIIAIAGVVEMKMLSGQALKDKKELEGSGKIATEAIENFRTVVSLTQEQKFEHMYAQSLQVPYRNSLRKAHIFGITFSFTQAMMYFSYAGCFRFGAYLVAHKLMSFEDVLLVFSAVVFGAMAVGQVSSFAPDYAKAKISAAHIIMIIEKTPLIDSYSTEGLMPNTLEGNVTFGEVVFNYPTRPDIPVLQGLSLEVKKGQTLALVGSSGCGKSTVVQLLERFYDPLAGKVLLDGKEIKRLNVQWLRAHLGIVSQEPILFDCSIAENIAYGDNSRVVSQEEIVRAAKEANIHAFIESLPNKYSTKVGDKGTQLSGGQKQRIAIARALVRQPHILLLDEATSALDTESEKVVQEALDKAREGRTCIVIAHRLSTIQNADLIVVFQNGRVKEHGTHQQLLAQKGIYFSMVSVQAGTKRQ
Sequence of Metabotropic glutamate receptor 7 (Q14831 whole entry): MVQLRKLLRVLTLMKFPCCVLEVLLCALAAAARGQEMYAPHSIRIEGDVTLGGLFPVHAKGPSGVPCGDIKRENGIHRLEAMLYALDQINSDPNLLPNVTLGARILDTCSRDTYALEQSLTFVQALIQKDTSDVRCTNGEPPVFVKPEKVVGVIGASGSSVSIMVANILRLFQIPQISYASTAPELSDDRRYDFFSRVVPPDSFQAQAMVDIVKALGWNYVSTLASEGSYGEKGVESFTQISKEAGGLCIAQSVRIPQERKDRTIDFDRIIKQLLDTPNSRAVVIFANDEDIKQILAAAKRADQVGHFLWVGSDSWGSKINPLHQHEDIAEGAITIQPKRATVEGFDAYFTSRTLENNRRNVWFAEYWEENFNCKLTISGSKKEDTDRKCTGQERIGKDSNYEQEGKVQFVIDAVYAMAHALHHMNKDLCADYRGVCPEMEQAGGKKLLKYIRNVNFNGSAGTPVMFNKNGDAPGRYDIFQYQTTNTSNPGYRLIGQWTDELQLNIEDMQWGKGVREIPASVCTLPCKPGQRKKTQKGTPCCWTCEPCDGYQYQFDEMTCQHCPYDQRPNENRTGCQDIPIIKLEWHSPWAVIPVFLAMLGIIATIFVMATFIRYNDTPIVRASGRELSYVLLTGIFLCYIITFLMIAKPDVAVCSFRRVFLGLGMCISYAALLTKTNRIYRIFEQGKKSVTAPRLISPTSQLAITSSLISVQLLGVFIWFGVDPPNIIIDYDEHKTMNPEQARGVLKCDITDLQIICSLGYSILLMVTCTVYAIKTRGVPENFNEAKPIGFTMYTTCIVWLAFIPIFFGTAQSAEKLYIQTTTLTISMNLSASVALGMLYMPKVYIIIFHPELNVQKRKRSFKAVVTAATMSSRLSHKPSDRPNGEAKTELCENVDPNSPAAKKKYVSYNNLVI
Sequence of Voltage-gated inwardly rectifying potassium channel KCNH2 (Q12809 whole entry): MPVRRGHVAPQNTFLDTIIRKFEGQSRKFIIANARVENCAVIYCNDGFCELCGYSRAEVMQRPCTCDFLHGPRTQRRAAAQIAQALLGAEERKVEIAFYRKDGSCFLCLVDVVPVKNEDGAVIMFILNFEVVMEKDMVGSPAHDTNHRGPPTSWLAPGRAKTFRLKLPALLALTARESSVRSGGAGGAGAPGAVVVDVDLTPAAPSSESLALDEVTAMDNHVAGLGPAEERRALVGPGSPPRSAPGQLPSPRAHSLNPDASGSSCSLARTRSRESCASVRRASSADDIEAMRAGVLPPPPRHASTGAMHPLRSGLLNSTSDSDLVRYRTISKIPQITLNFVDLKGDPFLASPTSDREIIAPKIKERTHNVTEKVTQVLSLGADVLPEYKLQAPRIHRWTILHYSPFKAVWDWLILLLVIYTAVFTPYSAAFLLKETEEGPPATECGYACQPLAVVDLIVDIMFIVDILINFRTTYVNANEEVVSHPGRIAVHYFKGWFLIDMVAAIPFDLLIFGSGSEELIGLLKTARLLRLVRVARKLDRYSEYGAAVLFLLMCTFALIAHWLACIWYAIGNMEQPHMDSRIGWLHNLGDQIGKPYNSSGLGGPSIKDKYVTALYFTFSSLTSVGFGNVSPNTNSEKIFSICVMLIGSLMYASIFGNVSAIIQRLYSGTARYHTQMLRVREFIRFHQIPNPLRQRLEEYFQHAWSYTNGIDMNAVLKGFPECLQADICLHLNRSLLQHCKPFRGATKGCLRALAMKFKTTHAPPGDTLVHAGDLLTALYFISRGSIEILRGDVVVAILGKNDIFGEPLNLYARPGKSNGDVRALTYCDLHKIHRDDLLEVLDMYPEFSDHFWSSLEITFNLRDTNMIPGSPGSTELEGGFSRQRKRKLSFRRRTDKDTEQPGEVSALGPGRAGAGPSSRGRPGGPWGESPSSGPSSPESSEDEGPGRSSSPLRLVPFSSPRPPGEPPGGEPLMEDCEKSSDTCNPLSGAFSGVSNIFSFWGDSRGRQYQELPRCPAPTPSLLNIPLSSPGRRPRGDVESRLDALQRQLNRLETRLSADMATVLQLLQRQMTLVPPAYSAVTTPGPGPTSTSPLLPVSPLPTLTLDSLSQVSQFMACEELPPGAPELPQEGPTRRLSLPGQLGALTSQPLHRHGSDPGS

Turning to `N[C@]1(C(=O)O)[C@@H]2[C@@H](C(=O)O)[C@@H]2[C@H](O)[C@H]1OCc1ccc(Cl)c(Cl)c1`, the results for the concentration at 0.5 h in data set [1] and in data set [5] were 16.5 µM and 0.248 µM, respectively. For the same compound, the half-life in [2] is 5.49 h. Further, the fraction unbound at 1 µM in data set [3] and in data set [10] was > 0.4 each time. The EC50 is > 25 µM in [4], > 12.5 µM in data set [8] and > 25 µM in data set [15]. In data set [6], the Ki was > 100 µM. This compound also displayed an inhibition at 100 µM at hERG (KCNH2) of 13%. Also, the metabolised at 0.5 h, 4 µM in data set [7] and in data set [14] was < 20% throughout. The inhibition at 10 µM against CYP2C9 is < 5%. Moreover, the Tmax in data set [9] turned out to be 1.67 h. This compound also displayed a F in data set [11] of 6%. Also, in data set [12], the inhibition result is “Active”. In [13], this compound displayed a solubility of 778 µg/mL (≈ 2070 µM). The area under the curve (AUC) in [16] came to 32.165 µM·h. Besides, the IC50 in data set [17] was > 12.5 µM. In addition, at ABCB1 (P-gp), the inhibition was < 1%. In data set [18], this compound displayed an AUC(0-t) at 24 h of 116 µM·h.
